Values after ≈ are worked out from the molar mass of the structure shown.
What was measured:
[1] = tested on: mixed lymphocyte reaction (popliteal lymph node); test: in vivo popliteal lymph node (PLN) test procedure (mixed lymphocyte reaction); design: species or system mice (irradiated BALB/c spleen cells into C3H recipients); conditions: for PLN (ratio): Table 1, daily p.o. Day 0 to Day 4
Description: (§1) Immunosuppressive activity was evaluated in an in vitro standard pharmacological test procedure to measure lymphocyte proliferation (LAF) and in two in vivo standard pharmacological test procedures. The first in vivo procedure was a popliteal lymph node (PLN) test procedure which measured the effect of compounds of this invention on a mixed lymphocyte reaction and the second in vivo procedure evaluated the survival time of a pinch skin graft.
A mixed lymphocyte reaction (MLR) occurs when lymphoid cells from genetically distinct animals are combined in tissue culture. Each stimulates the other to undergo blast transformation which results in increased DNA synthesis that can be quantified by the incorporation of tritiated thymidine. Since stimulating a MLR is a function of disparity at Major Histocompatibility antigens, an in vivo popliteal lymph node (PLN) test procedure closely correlates to host vs. graft disease. Briefly, irradiated spleen cells from BALB/c donors are injected into the right hind foot pad of recipient C3H mice. The drug is given daily, p.o. from Day 0 to Day 4. On Day 3 and Day 4, tritiated thymidine is given i.p., b.i.d. On Day 5, the hind popliteal lymph nodes are removed and dissolved, and radioactivity counted. The corresponding left PLN serves as the control for the PLN from the injected hind foot. Percent suppression is calculated using the non-drug treated animals as allogenic control. […] Results are expressed by the following ratio: [formula]

adjuvant arthritis = conditions: model for rheumatoid arthritis; cited from earlier work
transplant rejection = conditions: cited from earlier work
[2] = tested on: experimental allergic encephalomyelitis; conditions: model for multiple sclerosis; cited from earlier work
IgE-like antibodies = conditions: in vivo; cited from earlier work
Candida albicans = conditions: in vitro and in vivo; cited from earlier work
[3] = tested on: Candida albicans ATCC 10231; test: antifungal plate assay (MIC); format: cell-based; conditions: ATCC10231, plate disk assay
Description: (§2) The following represents the typical assay procedure used. Compound to be tested was placed on sterile dried 1/4" plate disks, and allowed to dry. Agar plates were seeded with fungi and allowed to solidify. The impregnated disks were placed on the seeded Agar surface and incubated for the time required for the particular culture. Results are expressed in MIC (μg/ml) to inhibit growth.

[4] = tested on: Candida albicans ATCC 38246; test: antifungal plate assay (MIC); format: cell-based; conditions: ATCC38246, plate disk assay
Description: as §2

[5] = tested on: Candida albicans ATCC 38248; test: antifungal plate assay (MIC); format: cell-based; conditions: ATCC38248, plate disk assay
Description: as §2

[6] = tested on: Candida albicans ATCC 38247; test: antifungal plate assay (MIC); format: cell-based; conditions: ATCC38247, plate disk assay
Description: as §2

Candida albicans 3669 = test: antifungal plate assay (MIC); format: cell-based; conditions: strain 3669, plate disk assay
Description: as §2

pinch skin graft = test: survival time of pinch skin graft; format: in vivo, mice (male DBA/2 donors, male BALB/c recipients)
Description: as §1
The second in vivo test procedure is designed to determine the survival time of pinch skin graft from male DBA/2 donors transplanted to male BALB/c recipients. The method is adapted from Billingham R. E. and Medawar P. B., J. Exp. Biol. 28:385-402, (1951). Briefly, a pinch skin graft from the donor is grafted on the dorsum of the recipient as a homograft, and an autograft is used as control in the same region. […] Untreated recipients serve as rejection control. The graft is monitored daily and observations are recorded until the graft becomes dry and forms a blackened scab. This is considered as the rejection day. The mean graft survival time (number of days ±S.D.) of the drug treatment group is compared with the control group.

| SMILES | Percent suppression (PLN) ([1]; 6 mg/kg, p.o., vs non-drug treated allogenic control) | PLN (ratio) [1] | effect in adjuvant arthritis model (adjuvant arthritis) | inhibition of transplant rejection (transplant rejection) | effect in experimental allergic encephalomyelitis model [2] | inhibition of formation of IgE-like antibodies (IgE-like antibodies) | antifungal activity (Candida albicans) | MIC [3] | MIC [4] | MIC [5] | MIC [6] | MIC (Candida albicans 3669) | PLN test result in words ([1]; interpretation of negative PLN ratio) | Skin Graft survival time (days + SD) (pinch skin graft; mean ± S.D., intraperitoneally) | survival time of the skin graft, in words (pinch skin graft; vs rejection within 6-7 days without immunosuppressive agent) |
| --- | --- | --- | --- | --- | --- | --- | --- | --- | --- | --- | --- | --- | --- | --- | --- |
| CO[C@H]1C[C@@H]2CC[C@@H](C)[C@@](O)(O2)C(=O)C(=O)N2CCCC[C@H]2C(=O)O[C@H]([C@H](C)C[C@@H]2CC[C@@H](O)[C@H](OC)C2)CC(=O)[C@H](C)/C=C(\C)[C@@H](O)[C@@H](OC)C(=O)[C@H](C)C[C@H](C)/C=C/C=C/C=C/1C [Rapamycin, rapamycin] | 86% | 1.0 | effective | effective in inhibiting transplant rejection | effective | effectively inhibited | antifungal activity | 0.003 µg/mL (≈ 0.00328 µM) | 0.025 µg/mL (≈ 0.0273 µM) | 0.006 µg/mL (≈ 0.00656 µM) | 0.003 µg/mL (≈ 0.00328 µM) | 0.025 µg/mL (≈ 0.0273 µM) |  |  |  |
| CO[C@H]1C[C@@H]2CC[C@@H](C)[C@@](O)(O2)C(=O)C(=O)N2CCCC[C@H]2C(=O)O[C@H]([C@H](C)C[C@@H]2CCC(=O)[C@H](OC)C2)CC(=O)[C@H](C)/C=C(\C)[C@@H](O)[C@@H](OC)C(=O)[C@H](C)C[C@H](C)/C=C/C=C/C=C/1C [42-oxorapamycin] |  | -0.93 |  |  |  |  |  | 0.006 µg/mL (≈ 0.00658 µM) | 0.05 µg/mL (≈ 0.0548 µM) | 0.025 µg/mL (≈ 0.0274 µM) | 0.125 µg/mL (≈ 0.137 µM) | 0.05 µg/mL (≈ 0.0548 µM) | may cause T cell proliferation | 10.17 ± 0.41 days | increased survival time |

Source: patent publication US5023263A, “42-oxorapamycin” (American Home Products Corporation, priority 1990, dated 1991)
